Where a SMILES comes first, the peptide text is derived from it.
Legend:
[1] = target: Wnt-responsive promoter (TCF/LEF); assay: Wnt-dependent luciferase reporter assay; assay type: cell-based, murine
Method: The luciferase reporter assay is commonly used as a tool to study gene expression at the transcriptional level. Peptides from libraries described herein were characterized for ability to suppress transcription in cells with luciferase expression controlled by a Wnt-responsive promoter. Peptides were added to cells transfected with luciferase gene downstream of a Wnt-responsive promoter. Cells were stimulated with Wnt3a protein and incubated with peptides from libraries described herein. Luminescence was recorded to determine the peptides with the highest β-catenin-inhibiting activity. EC50 values were calculated based on the inhibition of luminescence and expressed as concentration (uM) in Table 5.
Peptides were assessed for their ability to inhibit Wnt signaling. Murine 3T3 fibroblasts that express luciferase under a Wnt-responsive promoter (TCF/LEF) (Enzo Life Sciences, Farmingdale, NY) were stimulated with Wnt3a in the presence of increasing concentrations of peptide inhibitor (Hit 1: SEQ ID NO:217, Hit 2: SEQ ID NO:224, Hit 3: SEQ ID NO:228, Hit 4: SEQ ID NO:227, Hit 5: SEQ ID NO:220, Hit 6: SEQ ID NO:168. Hit 7: SEQ ID NO:226) or with vehicle control (FIG. 2A).

β-catenin = target: T1, β-catenin (Homo sapiens, UniProt P35222); assay: KD50 measurement using competitive fluorescence polarization (FP) with labelled TCF4; assay type: binding; details: fluorescence polarization, β-catenin; for Kd: read-out: β-Cat FP KD
T1 sequence (P35222 1-781): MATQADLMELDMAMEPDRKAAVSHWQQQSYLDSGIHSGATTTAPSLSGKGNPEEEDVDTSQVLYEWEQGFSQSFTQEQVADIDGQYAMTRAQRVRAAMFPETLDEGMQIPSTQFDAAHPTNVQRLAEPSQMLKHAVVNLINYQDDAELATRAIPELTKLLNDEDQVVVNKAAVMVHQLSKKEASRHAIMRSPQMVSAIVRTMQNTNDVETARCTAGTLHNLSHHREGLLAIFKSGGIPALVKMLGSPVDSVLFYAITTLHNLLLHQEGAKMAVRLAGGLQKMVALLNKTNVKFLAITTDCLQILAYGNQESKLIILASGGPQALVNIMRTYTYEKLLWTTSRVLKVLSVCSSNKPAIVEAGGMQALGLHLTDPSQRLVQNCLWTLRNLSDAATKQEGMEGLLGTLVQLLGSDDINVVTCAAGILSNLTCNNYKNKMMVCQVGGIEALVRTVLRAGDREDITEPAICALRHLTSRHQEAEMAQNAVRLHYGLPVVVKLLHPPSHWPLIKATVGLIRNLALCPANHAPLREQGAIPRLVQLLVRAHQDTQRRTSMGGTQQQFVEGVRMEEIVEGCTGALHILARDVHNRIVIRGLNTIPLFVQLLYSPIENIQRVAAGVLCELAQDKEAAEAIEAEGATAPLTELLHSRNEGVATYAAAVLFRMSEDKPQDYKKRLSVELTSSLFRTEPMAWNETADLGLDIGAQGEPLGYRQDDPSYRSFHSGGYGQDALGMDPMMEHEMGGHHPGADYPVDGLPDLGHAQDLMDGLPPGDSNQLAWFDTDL
Method in brief: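 5 nM labelled TCF4 was combined with 100 nM β-catenin at room temperature, then inhibitor was titrated in serial dilutions from 10 nM to 30 uM. Polarization was read at excitation 470 nm, emission 520 nm; displacement lowers the signal. Three independent experiments.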

| SMILES | EC50 [1] [µM] | β-Cat FP Hill slope (β-catenin) | Kd (β-catenin) [µM] |
| --- | --- | --- | --- |
| CC[C@H](C)[C@@H]1NC(=O)[C@@H](NC(=O)[C@H](CCC(N)=O)NC(C)=O)CCCCNC(=O)CC[C@@H](C(=O)N[C@@H](Cc2c[nH]cn2)C(=O)N[C@H](C(=O)N[C@@H](CCC(N)=O)C(=O)N[C@@H](CCCNC(=N)N)C(=O)N[C@H](C(=O)N[C@@H](Cc2c[nH]c3ccccc23)C(=O)NCC(N)=O)C(C)C)C2CCCCC2)NC(=O)[C@H](CC(=O)O)NC(=O)[C@H](CC(C)C)NC1=O [compound 440] (HELM PEPTIDE1{[ac].Q.K.I.L.D.E.H.[O=C([C@@H](N[*:1])C1CCCCC1)[*:2]].Q.R.V.W.G.[am]}$PEPTIDE1,PEPTIDE1,3:R3-7:R3$$$V2.0) | 22.5 to 30 | 0.7 | < 0.4 |
| CC[C@H](C)[C@@H]1NC(=O)[C@@H](NC(=O)[C@H](CCC(N)=O)NC(=O)[C@H](C)N(C)C(C)=O)CCCCNC(=O)CC[C@@H](C(=O)N[C@@H](Cc2c[nH]cn2)C(=O)N[C@H](C(=O)N[C@@H](CCC(N)=O)C(=O)N[C@@H](CCCNC(=N)N)C(=O)N[C@H](C(=O)N[C@@H](Cc2c[nH]c3ccccc23)C(N)=O)C(C)C)C2CCCCC2)NC(=O)[C@H](CC(=O)O)NC(=O)[C@H](CC(C)C)NC1=O [compound 445] (HELM PEPTIDE1{[ac].[meA].Q.K.I.L.D.E.H.[O=C([C@@H](N[*:1])C1CCCCC1)[*:2]].Q.R.V.W.[am]}$PEPTIDE1,PEPTIDE1,4:R3-8:R3$$$V2.0) | 22.5 to 30 | 0.7 | < 0.4 |
| CC[C@H](C)[C@H](NC(=O)[C@H](CO)NC(=O)[C@H](CCC(=O)O)NC(=O)[C@H](Cc1c[nH]c2ccccc12)N(C)C(=O)[C@@H](N)Cc1c[nH]c2ccccc12)C(=O)N[C@@H](CC(C)C)C(=O)N[C@@H](CC(=O)O)C(=O)N[C@@H](CCC(=O)O)C(=O)N[C@@H](Cc1c[nH]cn1)C(=O)NC(C)(C(=O)N[C@@H](CCC(N)=O)C(=O)N[C@@H](CCCNC(=N)N)C(=O)N[C@H](C(=O)N[C@@H](Cc1c[nH]c2ccccc12)C(=O)NCC(N)=O)C(C)C)C(C)C (stereo partly drawn) [compound 39] (HELM PEPTIDE1{W.[meW].E.S.I.L.D.E.H.[CC(C)C(C)(N[*:1])C(=O)[*:2]].Q.R.V.W.G.[am]}$$$$V2.0) | > 30 | 0.89 | < 0.4 |
| CC[C@H](C)[C@@H]1NC(=O)[C@@H](NC(=O)[C@H](CCC(N)=O)NC(=O)[C@H](C)N(C)C(=O)[C@@H](N)Cc2c[nH]c3ccccc23)CCCCNC(=O)CC[C@@H](C(=O)N[C@@H](Cc2c[nH]cn2)C(=O)N[C@H](C(=O)N[C@@H](CCC(N)=O)C(=O)N[C@@H](CCCNC(=N)N)C(=O)N[C@H](C(=O)N[C@@H](Cc2c[nH]c3ccccc23)C(=O)NCC(N)=O)C(C)C)C2CCCCC2)NC(=O)[C@H](CC(=O)O)NC(=O)[C@H](CC(C)C)NC1=O [compound 403] (HELM PEPTIDE1{W.[meA].Q.K.I.L.D.E.H.[O=C([C@@H](N[*:1])C1CCCCC1)[*:2]].Q.R.V.W.G.[am]}$PEPTIDE1,PEPTIDE1,4:R3-8:R3$$$V2.0) | > 30 | 0.76 | < 0.4 |
| CC[C@H](C)[C@H](NC(=O)C(C)(CO)NC(=O)[C@H](CCC(=O)O)NC(=O)[C@H](Cc1c[nH]c2ccccc12)N(C)C(=O)[C@@H](N)Cc1c[nH]c2ccccc12)C(=O)N[C@@H](CC(C)C)C(=O)N[C@@H](CC(=O)O)C(=O)N[C@@H](CCC(=O)O)C(=O)N[C@@H](Cc1c[nH]cn1)C(=O)NC(C)(C(=O)N[C@@H](CCC(N)=O)C(=O)N[C@@H](CCCNC(=N)N)C(=O)N[C@H](C(=O)N[C@@H](Cc1c[nH]c2ccccc12)C(=O)NCC(N)=O)C(C)C)C(C)C (stereo partly drawn) [compound 38] (HELM PEPTIDE1{W.[meW].E.[CC(CO)(N[*:1])C(=O)[*:2]].I.L.D.E.H.[CC(C)C(C)(N[*:1])C(=O)[*:2]].Q.R.V.W.G.[am]}$$$$V2.0) | > 30 | 0.9 | < 0.4 |
| CC[C@H](C)[C@@H]1NC(=O)[C@@H](NC(=O)[C@H](CCC(N)=O)NC(=O)[C@H](C)N(C)C(=O)[C@@H](N)Cc2c[nH]c3ccccc23)CCCCNC(=O)CC[C@@H](C(=O)N[C@@H](Cc2c[nH]cn2)C(=O)N[C@H](C(=O)N[C@@H](CCC(N)=O)C(=O)N[C@@H](CCCNC(=N)N)C(=O)N[C@H](C(=O)N[C@@H](Cc2c[nH]c3ccccc23)C(=O)NCC(N)=O)C(C)C)C(C)C)NC(=O)[C@H](CC(=O)O)NC(=O)[C@H](CC(C)C)NC1=O [compound 401] (HELM PEPTIDE1{W.[meA].Q.K.I.L.D.E.H.V.Q.R.V.W.G.[am]}$PEPTIDE1,PEPTIDE1,4:R3-8:R3$$$V2.0) | > 30 | 0.7 | 0.4 to 1 |
| CC[C@H](C)[C@@H]1NC(=O)[C@@H](NC(=O)[C@H](CCC(N)=O)NC(=O)[C@H](C)NC(=O)[C@H](Cc2c[nH]c3ccccc23)NC(C)=O)CCCCNC(=O)CC[C@@H](C(=O)N[C@@H](Cc2c[nH]cn2)C(=O)N[C@H](C(=O)N[C@@H](CCC(N)=O)C(=O)N[C@@H](CCCNC(=N)N)C(=O)N[C@H](C(=O)N[C@@H](Cc2c[nH]c3ccccc23)C(=O)NCC(N)=O)C(C)C)C2CCCCC2)NC(=O)[C@H](CC(=O)O)NC(=O)[C@H](CC(C)C)NC1=O [compound 441] (HELM PEPTIDE1{[ac].W.A.Q.K.I.L.D.E.H.[O=C([C@@H](N[*:1])C1CCCCC1)[*:2]].Q.R.V.W.G.[am]}$PEPTIDE1,PEPTIDE1,5:R3-9:R3$$$V2.0) | > 30 | 1.86 | < 0.4 |
| CC[C@H](C)[C@@H]1NC(=O)[C@@H](NC(=O)[C@H](CCC(N)=O)NC(=O)C(C)(C)NC(=O)[C@H](Cc2c[nH]c3ccccc23)NC(C)=O)CCCCNC(=O)CC[C@@H](C(=O)N[C@@H](Cc2c[nH]cn2)C(=O)N[C@H](C(=O)N[C@@H](CCC(N)=O)C(=O)N[C@@H](CCCNC(=N)N)C(=O)N[C@H](C(=O)N[C@@H](Cc2c[nH]c3ccccc23)C(=O)NCC(N)=O)C(C)C)C2CCCCC2)NC(=O)[C@H](CC(=O)O)NC(=O)[C@H](CC(C)C)NC1=O [compound 443] (HELM PEPTIDE1{[ac].W.[Aib].Q.K.I.L.D.E.H.[O=C([C@@H](N[*:1])C1CCCCC1)[*:2]].Q.R.V.W.G.[am]}$PEPTIDE1,PEPTIDE1,5:R3-9:R3$$$V2.0) | 7.5 to 15 | 0.86 | < 0.4 |
| CC[C@H](C)[C@H](NC(=O)C(C)(CO)NC(=O)[C@H](CCC(=O)O)NC(=O)[C@H](Cc1c[nH]c2ccccc12)N(C)C(=O)[C@@H](N)Cc1c[nH]c2ccccc12)C(=O)N[C@@H](CC(C)C)C(=O)N[C@@H](CC(=O)O)C(=O)N[C@@H](CCC(=O)O)C(=O)N[C@@H](Cc1c[nH]cn1)C(=O)N[C@H](C(=O)N[C@@H](CCC(N)=O)C(=O)N[C@@H](CCCNC(=N)N)C(=O)N[C@H](C(=O)N[C@@H](Cc1c[nH]c2ccccc12)C(=O)NCC(N)=O)C(C)C)C(C)C (stereo partly drawn) [compound 40] (HELM PEPTIDE1{W.[meW].E.[CC(CO)(N[*:1])C(=O)[*:2]].I.L.D.E.H.V.Q.R.V.W.G.[am]}$$$$V2.0) | > 30 | 0.88 | < 0.4 |
| CC[C@H](C)[C@H](NC(=O)[C@H](CO)NC(=O)[C@H](CCC(=O)O)NC(=O)[C@H](Cc1c[nH]c2ccccc12)NC(=O)[C@@H](N)CCSC)C(=O)N[C@@H](CC(C)C)C(=O)N[C@@H](CC(=O)O)C(=O)N[C@@H](CCC(=O)O)C(=O)N[C@@H](Cc1c[nH]cn1)C(=O)NC(C)(C(=O)N[C@@H](CCC(N)=O)C(=O)N[C@@H](CCCNC(=N)N)C(=O)N[C@H](C(=O)N[C@@H](Cc1c[nH]c2ccccc12)C(=O)NCC(N)=O)C(C)C)C(C)C (stereo partly drawn) [compound 34] (HELM PEPTIDE1{M.W.E.S.I.L.D.E.H.[CC(C)C(C)(N[*:1])C(=O)[*:2]].Q.R.V.W.G.[am]}$$$$V2.0) | > 30 | 0.92 | < 0.4 |
